In brackets after ≈: the same amount, converted by molar mass. Where only a bound is given, the exact number is not on record here.

Data set [1] is described as follows: Apparent permeability coefficient of the compound across apical to basolateral side in dog MDCK cells by high-throughput analysis. It is filed as ADME, cell-based, Canis lupus familiaris.
Data set [2] can be described thus: Inhibition of biotinylated human IL-17A/AF647-labeled human IL-17RA protein-protein interaction preincubated for 30 mins with compound followed by addition of AF647-labeled human IL-17RA incubated for 90 min by TR-FRET assay. Background: In TR-FRET formats the signal depends on donor and acceptor labels being close together.
The nature of data set [3]: Inhibition of IL-6 production in IL-17/TNF-alpha stimulated human NHDF cells incubated for 24 hrs by ELISA. Type of data set: functional, cell-based. The conditions noted are these: 24 h.
Data set [4] can be described thus: Lipophilicity, logD of compound at pH 7.4. It is filed as physicochemical. Particulars: buffer.
The nature of data set [5]: Equilibrium solubility of compound […] at pH 6.8 by high-throughput analysis. It is filed as physicochemical.
Data set [6] can be described thus: Metabolic stability in rat liver microsomes assessed as intrinsic clearance. It is filed as ADME, Microsome. The conditions noted are these: read-out: CLH.
A short description of data set [7]: Metabolic stability in human liver microsomes assessed as intrinsic clearance. It is filed as ADME, Microsome. The conditions noted are these: read-out: CLH.
Data set [8] in a line: Plasma clearance in Sprague-Dawley rat at 1 mg/kg,iv measured upto 24 hrs by LC-MS/MS analysis. It is filed as ADME, organism-based.
Data set [9] in a line: AUC in Sprague-Dawley rat at 3 mg/kg,po measured upto 24 hrs by LC-MS/MS analysis. The conditions noted are these: in vivo; for AUC: po, 3 mg/kg, 24 h. It is filed as ADME, organism-based.
The nature of data set [10]: Oral bioavailability in Sprague-Dawley rat at 3 mg/kg measured upto 24 hrs by LC-MS/MS analysis. The conditions noted are these: in vivo; for F: po, 3 mg/kg, 24 h. It is filed as ADME, organism-based.

On to `C/C=C(\F)C(=O)N[C@H](c1cn2ncc([C@@H](COC)N3C[C@@H](C(F)(F)F)NC3=O)cc2n1)C1CCC(F)(F)CC1`, for which the Papp A→B in data set [1] amounted to 9.7 ×10⁻⁶ cm/s. The IC50 in data set [2] amounted to 19 nM; in [3], 7 nM. The same molecule yielded a logD in [4] of 3. Further, in data set [5], the solubility stood at 700 µM (≈ 394 µg/mL). Further, the microsomal CLint in data set [6] turned out to be 166 µL/min/mg; in [7] it was 90 µL/min/mg.

In the case of `COC[C@H](c1cnn2cc([C@@H](Nc3ncc(C4CC4)o3)C3CCC(F)(F)CC3)nc2c1)N1C[C@@H](C(F)(F)F)NC1=O`, the apparent permeability from apical to basolateral (Papp A→B) in data set [1] came to 17 ×10⁻⁶ cm/s. In addition, the figures for the IC50 in data set [2] and in data set [3] were 80 nM and 64 nM, respectively. For the same molecule, the log distribution coefficient (logD) in [4] is greater than 4.7. This molecule displayed a solubility in data set [5] of 270 µM (≈ 158 µg/mL). Besides, the figures for the microsomal CLint in data set [6] and in data set [7] were greater than 1000 µL/min/mg and 261 µL/min/mg, respectively.

For the molecule `COC[C@H](c1cnn2cc([C@@H](NC(=O)c3nonc3C)C3CCC(F)(F)CC3)nc2c1)N1C[C@@H](C(F)(F)F)NC1=O` [LY-3509754], in [1], the Papp A→B is 11 ×10⁻⁶ cm/s. Further, the IC50 is 10 nM in data set [2] and 4 nM in data set [3]. Further, the logD in data set [4] was determined as 3.1. The amount in solution in data set [5] (solubility) came to 380 µM (≈ 223 µg/mL). In addition, the microsomal CLint in data set [6] was 20 µL/min/mg; in [7], 32 µL/min/mg. Further, in data set [8], the clearance was 24 mL/min/kg. The AUC at 24 h in [9] (Sprague-Dawley) amounted to 5.43 µM·h. Also, the bioavailability in data set [10] (Sprague-Dawley) worked out at 119%.

As for `COC[C@H](c1cnn2cc([C@@H](NC(=O)C(F)=C(C)C)C3CCC(F)(F)CC3)nc2c1)N1C[C@@H](C(F)(F)F)NC1=O`, the Papp A→B in data set [1] was found to be 25 ×10⁻⁶ cm/s. Further, the IC50 in [2] was 19 nM; in [3], 8 nM. Further, the logD in [4] amounted to 3.2. In [5], this molecule gave a solubility of 340 µM (≈ 196 µg/mL). Further, the microsomal CLint in [6] is greater than 1000 µL/min/mg; in data set [7] it was 161 µL/min/mg.

Consider `COC[C@H](c1cnn2cc([C@@H](Nc3nnc(C(F)(F)F)o3)C3CCC(F)(F)CC3)nc2c1)N1C[C@@H](C(F)(F)F)NC1=O`, for which the Papp A→B in data set [1] amounted to 8 ×10⁻⁶ cm/s. The half-inhibitory concentration (IC50) was found to be 25 nM in [2] and 15 nM in [3]. The logD in data set [4] came to 3.4. Also, in data set [5], the solubility was 270 µM (≈ 165 µg/mL). Also, the values for the microsomal CLint in data set [6] and in [7] were less than 25 µL/min/mg and less than 10 µL/min/mg, respectively.

With `COC[C@H](c1cnn2cc([C@@H](NC(=O)C(C)(F)F)C3CCC(F)(F)CC3)nc2c1)N1C[C@@H](C(F)(F)F)NC1=O`, the Papp A→B in data set [1] was 5.5 ×10⁻⁶ cm/s. Further, the values for the IC50 in [2] and in data set [3] were 85 nM and 74 nM, respectively. This molecule also returned a logD in data set [4] of 2.5. For the same molecule, in data set [5], the solubility was greater than 750 µM. Besides, the microsomal CLint in data set [6] was found to be 26 µL/min/mg; in [7] it was 15 µL/min/mg.

`COC[C@H](c1cnn2cc([C@@H](Nc3noc(C(C)(F)F)n3)C3CCC(F)(F)CC3)nc2c1)N1C[C@@H](C(F)(F)F)NC1=O`: in [1], the Papp A→B worked out at 20 ×10⁻⁶ cm/s. In addition, the results for the IC50 in data set [2] and in data set [3] were 30 nM and 27 nM, respectively. For the same molecule, in [4], the logD was 3.7. This molecule yielded a solubility in [5] of 130 µM (≈ 79.1 µg/mL). Moreover, the microsomal CLint in [6] was determined as 33 µL/min/mg; in [7], 49 µL/min/mg.

With `COC[C@H](c1cnn2cc([C@@H](Nc3nnc(C)s3)C3CCC(F)(F)CC3)nc2c1)N1C[C@@H](C(F)(F)F)NC1=O`, the Papp A→B in data set [1] stood at 1.3 ×10⁻⁶ cm/s. In addition, the results for the IC50 in data set [2] and in data set [3] were 61 nM and 45 nM, respectively. In addition, in data set [4], the logD amounted to 2.5. The solubility in data set [5] is 610 µM (≈ 350 µg/mL). Besides, the microsomal CLint in data set [6] was 75 µL/min/mg; in data set [7], 50 µL/min/mg.

As for `COC[C@H](c1cnn2cc([C@@H](Nc3nnc(C)o3)C3CCC(F)(F)CC3)nc2c1)N1C[C@@H](C(F)(F)F)NC1=O`, the Papp A→B in data set [1] stood at 0.5 ×10⁻⁶ cm/s. Further, the IC50 in [2] was 85 nM; in [3], 49 nM. In addition, the logD in [4] came out at 1.9. The molecule also displayed a solubility in data set [5] greater than 750 µM. Also, the microsomal CLint is 28 µL/min/mg in [6] and 23 µL/min/mg in [7].

In the case of `COC[C@H](c1cnn2cc([C@@H](Nc3cc(C)on3)C3CCC(F)(F)CC3)nc2c1)N1C[C@@H](C(F)(F)F)NC1=O`, in data set [1], the apparent permeability from apical to basolateral (Papp A→B) turned out to be 3.3 ×10⁻⁶ cm/s. In addition, the IC50 in [2] is 62 nM; in data set [3] it was 75 nM. Also, the logD in data set [4] is 2.9. In addition, the concentration in solution in data set [5] (solubility) came to 600 µM (≈ 335 µg/mL). Also, the figures for the microsomal CLint in data set [6] and in data set [7] were 156 µL/min/mg and 42 µL/min/mg, respectively.

On to `COC[C@H](c1cnn2cc([C@@H](NC(=O)/C(F)=C\C3(F)CC3)C3CCC(F)(F)CC3)nc2c1)N1C[C@@H](C(F)(F)F)NC1=O`, for which, in data set [1], the Papp A→B is 12 ×10⁻⁶ cm/s. The 50% inhibitory concentration (IC50) is 16 nM in data set [2] and 4 nM in data set [3]. The logD in [4] was 2.8. Moreover, the solubility in data set [5] is 560 µM (≈ 340 µg/mL). Moreover, the microsomal CLint in data set [6] is 64 µL/min/mg; in data set [7], 164 µL/min/mg. In addition, in [9], the AUC is 0.013 µM·h. Further, the F in data set [10] is recorded as 23%.

As to `C=C(F)C(=O)N[C@H](c1cn2ncc([C@@H](COC)N3C[C@@H](C(F)(F)F)NC3=O)cc2n1)C1CCC(F)(F)CC1`, the Papp A→B in [1] was 6.5 ×10⁻⁶ cm/s. Also, the IC50 in data set [2] was 31 nM; in data set [3], 27 nM. The molecule also returned a logD in [4] of 2.5. In addition, the solubility in data set [5] is greater than 750 µM. The figures for the microsomal CLint in data set [6] and in data set [7] were 33 µL/min/mg and 11 µL/min/mg, respectively. The AUC in data set [9] came to 0.025 µM·h. The molecule also had a F in data set [10] of 113%.

In the case of `COC[C@H](c1cnn2cc([C@@H](Nc3nc(C(C)(F)F)no3)C3CCC(F)(F)CC3)nc2c1)N1C[C@@H](C(F)(F)F)NC1=O`, the apical-to-basolateral permeability (Papp A→B) in data set [1] came to 9.7 ×10⁻⁶ cm/s. For the same molecule, the IC50 in data set [2] turned out to be 116 nM; in data set [3], 107 nM. In data set [4], this molecule had a logD of 3.5. In data set [5], this molecule showed a solubility of 200 µM (≈ 122 µg/mL). In addition, the microsomal CLint in data set [6] and in [7] was 18 µL/min/mg in each case.

For the molecule `COC[C@H](c1cnn2cc([C@@H](Nc3cc(OC)ncn3)C3CCC(F)(F)CC3)nc2c1)N1C[C@@H](C(F)(F)F)NC1=O`, in data set [1], the Papp A→B amounted to 11 ×10⁻⁶ cm/s. Further, the 50% inhibitory concentration (IC50) in data set [2] was 735 nM; in [3] it was 493 nM. Besides, the logD in [4] worked out at 3.2. In addition, in data set [5], the concentration in solution (solubility) was 700 µM (≈ 409 µg/mL). The microsomal CLint in [6] was 77 µL/min/mg; in [7], 31 µL/min/mg.

For `C/C=C(/F)C(=O)N[C@H](c1cn2ncc([C@@H](COC)N3C[C@@H](C(F)(F)F)NC3=O)cc2n1)C1CCC(F)(F)CC1`, in [1], the Papp A→B was 17 ×10⁻⁶ cm/s. For the same molecule, the figures for the IC50 in [2] and in data set [3] were 11 nM and 4 nM, respectively. Besides, the logD in [4] came out at 3. This molecule also displayed a solubility in data set [5] of 600 µM (≈ 338 µg/mL). For the same molecule, the microsomal CLint was found to be 240 µL/min/mg in data set [6] and 159 µL/min/mg in data set [7]. This molecule yielded an AUC in [9] of 0.053 µM·h. Moreover, the F in data set [10] was found to be 55%.

In the case of `COC[C@H](c1cnn2cc([C@@H](Nc3nnc(C)n3C)C3CCC(F)(F)CC3)nc2c1)N1C[C@@H](C(F)(F)F)NC1=O`, in [1], the Papp A→B came to 0.4 ×10⁻⁶ cm/s. In addition, the values for the IC50 in data set [2] and in [3] were 1820 nM and 2690 nM, respectively. For the same molecule, in [4], the logD was found to be 1.5. The same molecule yielded a solubility in data set [5] greater than 750 µM. Further, the figures for the microsomal CLint in [6] and in data set [7] were 13 µL/min/mg and 18 µL/min/mg, respectively.

As a reminder, the Papp A→B is how fast a substance crosses the layer from the apical side. By IC50 is commonly meant the concentration needed to halve the response being measured. As usually defined, the logD is the decadic logarithm of the distribution of all forms, ionised or not, between an organic phase and buffer at a given pH. Higher therefore signals a more lipophilic compound. One may read the solubility as the dissolved amount per volume that the medium holds. High values mean much dissolved substance, low ones little dissolved substance. In general, clearance refers to a measure of how efficiently the substance is removed, as volume per time. A higher clearance goes with a high capacity for elimination. As usually defined, the AUC is the area under the concentration-time curve, a measure of exposure. High values mean high exposure, low ones low exposure.

The values are drawn from ChEMBL document CHEMBL5579899, “Discovery and In Vivo Exploration of 1,3,4-Oxadiazole and α-Fluoroacrylate Containing IL-17 Inhibitors” (J Med Chem, 2024).
